Activity calls are given as the source filed them.
Columns and labels:
[1] = molecular target: T1, 1-phosphatidylinositol 4,5-bisphosphate phosphodiesterase beta-3 (Homo sapiens, UniProt Q01970); assay: Fluorescence-based biochemical high throughput dose response assay to identify inhibitors of phospholipase C isozymes (PLC-B3).
T1 sequence (Q01970 whole entry): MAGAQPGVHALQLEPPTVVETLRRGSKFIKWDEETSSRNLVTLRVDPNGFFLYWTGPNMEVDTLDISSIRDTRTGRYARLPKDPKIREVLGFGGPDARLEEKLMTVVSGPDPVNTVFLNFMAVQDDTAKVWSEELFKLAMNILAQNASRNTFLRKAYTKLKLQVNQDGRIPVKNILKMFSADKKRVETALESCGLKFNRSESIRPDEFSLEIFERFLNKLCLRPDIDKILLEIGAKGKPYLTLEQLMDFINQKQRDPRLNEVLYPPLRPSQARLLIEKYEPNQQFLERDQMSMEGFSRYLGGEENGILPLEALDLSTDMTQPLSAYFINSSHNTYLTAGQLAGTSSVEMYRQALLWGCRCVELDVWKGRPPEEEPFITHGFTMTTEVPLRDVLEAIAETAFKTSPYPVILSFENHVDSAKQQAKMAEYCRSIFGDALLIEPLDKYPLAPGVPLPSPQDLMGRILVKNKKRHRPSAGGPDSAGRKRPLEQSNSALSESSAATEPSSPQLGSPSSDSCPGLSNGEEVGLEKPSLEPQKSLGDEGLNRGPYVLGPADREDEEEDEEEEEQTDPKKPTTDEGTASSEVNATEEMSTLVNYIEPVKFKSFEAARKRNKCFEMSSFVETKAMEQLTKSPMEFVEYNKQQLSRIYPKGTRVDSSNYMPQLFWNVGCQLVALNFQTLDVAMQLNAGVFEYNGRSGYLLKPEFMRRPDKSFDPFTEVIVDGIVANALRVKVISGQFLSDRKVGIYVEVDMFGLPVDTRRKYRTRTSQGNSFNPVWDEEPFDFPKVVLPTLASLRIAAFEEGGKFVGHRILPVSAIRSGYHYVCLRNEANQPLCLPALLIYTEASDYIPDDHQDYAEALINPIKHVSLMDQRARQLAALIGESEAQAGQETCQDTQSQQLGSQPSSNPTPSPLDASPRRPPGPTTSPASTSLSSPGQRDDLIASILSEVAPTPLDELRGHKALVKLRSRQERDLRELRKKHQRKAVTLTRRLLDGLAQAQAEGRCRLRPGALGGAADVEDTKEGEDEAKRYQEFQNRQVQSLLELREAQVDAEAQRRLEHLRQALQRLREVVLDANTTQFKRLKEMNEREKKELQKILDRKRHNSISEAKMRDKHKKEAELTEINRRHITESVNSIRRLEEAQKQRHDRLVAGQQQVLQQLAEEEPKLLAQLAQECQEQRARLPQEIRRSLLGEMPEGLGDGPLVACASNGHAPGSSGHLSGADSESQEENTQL

[2] = molecular target: T2, 1-phosphatidylinositol 4,5-bisphosphate phosphodiesterase gamma-1 (Homo sapiens, UniProt P19174); assay: Counterscreen for inhibitors of phospholipase C isozymes (PLC-B3): Fluorescence-based biochemical high throughput dose response assay to identify inhibitors of phospholipase C isozymes (PLC-gamma1).
T2 sequence (P19174 whole entry): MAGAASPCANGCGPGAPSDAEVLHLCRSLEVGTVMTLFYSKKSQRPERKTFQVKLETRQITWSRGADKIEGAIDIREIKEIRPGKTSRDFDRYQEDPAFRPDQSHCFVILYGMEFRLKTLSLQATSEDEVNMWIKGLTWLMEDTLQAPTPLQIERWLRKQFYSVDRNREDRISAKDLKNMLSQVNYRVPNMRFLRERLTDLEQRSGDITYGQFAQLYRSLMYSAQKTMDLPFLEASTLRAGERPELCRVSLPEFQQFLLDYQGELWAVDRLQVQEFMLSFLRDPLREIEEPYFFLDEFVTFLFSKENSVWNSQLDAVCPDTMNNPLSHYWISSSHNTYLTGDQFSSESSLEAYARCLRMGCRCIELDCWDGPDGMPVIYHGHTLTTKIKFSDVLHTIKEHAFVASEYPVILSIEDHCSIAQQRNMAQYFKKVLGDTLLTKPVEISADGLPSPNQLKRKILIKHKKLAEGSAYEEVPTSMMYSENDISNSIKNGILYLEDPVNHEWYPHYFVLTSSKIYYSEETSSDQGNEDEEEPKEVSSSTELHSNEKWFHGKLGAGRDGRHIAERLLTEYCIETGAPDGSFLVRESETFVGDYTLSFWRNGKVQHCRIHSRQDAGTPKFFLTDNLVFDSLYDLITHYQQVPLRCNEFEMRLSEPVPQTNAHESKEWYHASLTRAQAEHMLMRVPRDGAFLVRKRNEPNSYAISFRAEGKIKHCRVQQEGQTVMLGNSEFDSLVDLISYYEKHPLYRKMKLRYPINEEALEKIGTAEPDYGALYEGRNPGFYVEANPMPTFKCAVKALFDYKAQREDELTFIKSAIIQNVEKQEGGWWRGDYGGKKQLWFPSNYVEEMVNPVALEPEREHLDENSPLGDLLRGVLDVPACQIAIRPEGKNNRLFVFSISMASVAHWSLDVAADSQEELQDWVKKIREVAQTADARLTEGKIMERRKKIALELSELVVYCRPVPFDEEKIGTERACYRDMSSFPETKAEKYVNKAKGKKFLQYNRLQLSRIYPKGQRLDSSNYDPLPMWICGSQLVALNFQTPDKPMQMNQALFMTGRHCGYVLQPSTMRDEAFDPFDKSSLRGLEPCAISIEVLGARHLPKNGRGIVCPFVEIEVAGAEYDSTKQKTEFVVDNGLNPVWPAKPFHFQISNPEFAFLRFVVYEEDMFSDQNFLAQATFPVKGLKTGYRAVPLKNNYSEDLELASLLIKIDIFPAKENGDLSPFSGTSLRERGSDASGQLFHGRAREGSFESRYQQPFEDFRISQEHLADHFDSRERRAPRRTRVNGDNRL

[3] = human group III sPLA2 inhibitors, dose response, biochemical, QFRET, IC50 (AID 743457);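 further: green fluorescence rise as the enzyme cleaves BODIPY PC-A2 in liposomes; potency for inhibition of the enzyme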
Fatty acid synthase [4] = molecular target: T3, Fatty acid synthase (Homo sapiens, UniProt P49327); assay: FAS thioesterase domain inhibitors, dose response, biochemical, kinetic fluorescence intensity (AID 624326); type: functional;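 further: rate of fluorescence rise from hydrolysis of a fluorogenic O-methyl fluorescein ester substrate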
T3 sequence (P49327 whole entry, the tested form may be a part): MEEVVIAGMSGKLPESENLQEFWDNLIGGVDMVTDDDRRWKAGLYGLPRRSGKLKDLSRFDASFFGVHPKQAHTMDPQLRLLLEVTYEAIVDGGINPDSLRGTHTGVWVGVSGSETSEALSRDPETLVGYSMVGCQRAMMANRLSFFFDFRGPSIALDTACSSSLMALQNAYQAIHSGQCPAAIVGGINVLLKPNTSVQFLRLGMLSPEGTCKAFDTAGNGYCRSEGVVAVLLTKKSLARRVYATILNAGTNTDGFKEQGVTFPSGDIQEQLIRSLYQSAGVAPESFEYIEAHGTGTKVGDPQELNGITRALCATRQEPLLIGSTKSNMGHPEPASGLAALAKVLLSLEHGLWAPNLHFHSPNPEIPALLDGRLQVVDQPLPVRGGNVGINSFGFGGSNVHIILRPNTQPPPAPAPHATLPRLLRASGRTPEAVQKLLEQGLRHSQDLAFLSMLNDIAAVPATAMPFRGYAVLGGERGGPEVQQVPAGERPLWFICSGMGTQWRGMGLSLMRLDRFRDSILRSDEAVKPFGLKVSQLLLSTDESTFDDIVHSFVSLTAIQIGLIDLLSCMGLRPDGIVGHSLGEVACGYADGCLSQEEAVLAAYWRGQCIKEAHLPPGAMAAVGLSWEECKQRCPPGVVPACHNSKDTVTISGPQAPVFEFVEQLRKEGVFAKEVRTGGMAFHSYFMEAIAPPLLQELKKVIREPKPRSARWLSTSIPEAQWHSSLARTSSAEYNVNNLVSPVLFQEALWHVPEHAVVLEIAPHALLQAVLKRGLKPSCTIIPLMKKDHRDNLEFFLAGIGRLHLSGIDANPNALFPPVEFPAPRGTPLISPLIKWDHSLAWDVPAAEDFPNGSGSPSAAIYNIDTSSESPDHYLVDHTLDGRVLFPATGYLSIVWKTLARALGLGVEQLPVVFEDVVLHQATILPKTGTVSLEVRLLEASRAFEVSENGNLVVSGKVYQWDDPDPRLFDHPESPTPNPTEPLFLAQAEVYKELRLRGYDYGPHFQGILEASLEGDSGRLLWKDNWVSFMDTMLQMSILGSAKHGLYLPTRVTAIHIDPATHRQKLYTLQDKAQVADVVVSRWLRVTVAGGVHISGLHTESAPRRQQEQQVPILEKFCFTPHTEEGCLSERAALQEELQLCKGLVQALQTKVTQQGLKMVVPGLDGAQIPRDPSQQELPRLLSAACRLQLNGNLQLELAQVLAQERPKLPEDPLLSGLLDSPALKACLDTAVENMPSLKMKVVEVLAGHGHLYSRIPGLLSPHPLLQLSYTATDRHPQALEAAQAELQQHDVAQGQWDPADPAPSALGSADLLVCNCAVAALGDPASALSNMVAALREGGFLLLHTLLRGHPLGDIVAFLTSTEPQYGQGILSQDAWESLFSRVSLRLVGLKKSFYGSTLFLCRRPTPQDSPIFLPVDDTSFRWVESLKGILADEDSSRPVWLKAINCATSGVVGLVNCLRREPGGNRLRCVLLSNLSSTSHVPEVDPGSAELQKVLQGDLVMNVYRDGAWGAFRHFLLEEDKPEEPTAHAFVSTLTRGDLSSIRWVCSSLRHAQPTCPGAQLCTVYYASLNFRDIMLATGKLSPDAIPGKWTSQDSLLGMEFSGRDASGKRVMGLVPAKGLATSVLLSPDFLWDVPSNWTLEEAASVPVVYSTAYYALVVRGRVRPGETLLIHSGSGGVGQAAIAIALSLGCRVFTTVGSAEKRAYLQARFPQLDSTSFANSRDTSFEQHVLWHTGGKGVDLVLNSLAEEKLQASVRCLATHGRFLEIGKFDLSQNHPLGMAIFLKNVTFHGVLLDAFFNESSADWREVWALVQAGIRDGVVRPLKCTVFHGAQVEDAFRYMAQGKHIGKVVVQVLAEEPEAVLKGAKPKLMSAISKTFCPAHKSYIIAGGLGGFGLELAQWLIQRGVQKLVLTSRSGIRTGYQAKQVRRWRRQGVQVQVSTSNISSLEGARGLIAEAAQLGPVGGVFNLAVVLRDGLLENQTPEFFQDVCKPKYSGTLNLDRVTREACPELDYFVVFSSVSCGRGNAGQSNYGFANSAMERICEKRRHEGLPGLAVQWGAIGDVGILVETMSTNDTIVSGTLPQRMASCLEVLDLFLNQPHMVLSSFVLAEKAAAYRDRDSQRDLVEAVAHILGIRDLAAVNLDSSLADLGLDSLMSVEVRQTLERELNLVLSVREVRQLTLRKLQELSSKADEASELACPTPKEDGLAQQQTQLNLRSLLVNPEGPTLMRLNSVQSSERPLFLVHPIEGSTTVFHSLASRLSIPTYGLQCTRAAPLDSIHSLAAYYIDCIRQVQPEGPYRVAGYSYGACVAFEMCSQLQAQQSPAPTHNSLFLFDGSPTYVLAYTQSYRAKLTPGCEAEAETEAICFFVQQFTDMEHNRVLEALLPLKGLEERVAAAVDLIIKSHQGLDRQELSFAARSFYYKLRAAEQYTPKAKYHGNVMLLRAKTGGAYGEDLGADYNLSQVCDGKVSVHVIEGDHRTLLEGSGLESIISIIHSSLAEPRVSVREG

BJ [5] = assay: cytotoxicity toward BJ-TERT-LT-ST fibroblasts, dose response, cell-based, RAS-independent, luminescence (AID 1935); type: functional; settings: Homo sapiens;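 further: BJ fibroblasts immortalized with TERT plus LT and ST oncogenes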
[6] = HEK293T cytotoxicity, dose response, cytotoxicity control for miR-122 modulator project, cell-based, inhibitor set, cherry-pick, set 2 (AID 720697); type: functional
BJ [7] = assay: cells; type: functional, cell-based; settings: Homo sapiens
[8] = cytotoxicity toward DRD oncogenic fibroblasts, dose response, cell-based, non-viral oncogenic, luminescence (AID 1934); type: functional; settings: Homo sapiens
BJ [9] = assay: cytotoxicity toward BJ-TERT fibroblasts, dose response, cell-based, RAS-independent, luminescence (AID 1933); type: functional; settings: Homo sapiens
BJ [10] = assay: cytotoxicity toward Ras-transformed BJeLR fibroblasts, dose response, cell-based, alamar blue fluorescence, cherrypicked samples (AID 2631); type: functional; settings: Homo sapiens;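 further: confirmatory dose-response assay in RAS-dependent BJ fibroblasts engineered with TERT, LT and ST, with cytotoxicity read by fluorescence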
[11] = HEK293T cytotoxicity, dose response, cytotoxicity control for miR-122 modulator project, cell-based, activator set, cherry-pick (AID 720690); type: functional;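 further: HEK293T human cells scored for general mammalian cytotoxicity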
[12] = miR-122 activators in hepatoma reporter cells, dose response, cell-based, Huh7 psiCHECK-miR122, Renilla luciferase, cherry-picked (AID 651956); type: functional;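 further: huh7 hepatoma cells stably carrying a psiCHECK-2 miR-122 sensor plasmid; renilla luciferase signal reporting endogenous miR-122 activity after 48 h compound exposure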
Fatty acid synthase [13] = molecular target: T3, Fatty acid synthase; assay: FAS thioesterase domain inhibitors, dose response, biochemical, endpoint fluorescence intensity, uHTS hits (AID 624327); type: functional;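 further: fluorescence from hydrolysis of an O-methyl fluorescein acyl ester substrate by the enzyme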
[14] = molecular target: T4, Long-chain-fatty-acid--AMP ligase FadD28 (Mycobacterium tuberculosis, UniProt P9WQ59); assay: Fluorescence polarization aasay to screen for inhibitors that compete for the binding of FadD28 to a bisubstrate Measured in Biochemical System Using Plate Reader - 2147-01_Inhibitor_Dose_CherryPick_Activity.; type: functional, Mycobacterium tuberculosis H37Rv
T4 sequence (P9WQ59 whole entry): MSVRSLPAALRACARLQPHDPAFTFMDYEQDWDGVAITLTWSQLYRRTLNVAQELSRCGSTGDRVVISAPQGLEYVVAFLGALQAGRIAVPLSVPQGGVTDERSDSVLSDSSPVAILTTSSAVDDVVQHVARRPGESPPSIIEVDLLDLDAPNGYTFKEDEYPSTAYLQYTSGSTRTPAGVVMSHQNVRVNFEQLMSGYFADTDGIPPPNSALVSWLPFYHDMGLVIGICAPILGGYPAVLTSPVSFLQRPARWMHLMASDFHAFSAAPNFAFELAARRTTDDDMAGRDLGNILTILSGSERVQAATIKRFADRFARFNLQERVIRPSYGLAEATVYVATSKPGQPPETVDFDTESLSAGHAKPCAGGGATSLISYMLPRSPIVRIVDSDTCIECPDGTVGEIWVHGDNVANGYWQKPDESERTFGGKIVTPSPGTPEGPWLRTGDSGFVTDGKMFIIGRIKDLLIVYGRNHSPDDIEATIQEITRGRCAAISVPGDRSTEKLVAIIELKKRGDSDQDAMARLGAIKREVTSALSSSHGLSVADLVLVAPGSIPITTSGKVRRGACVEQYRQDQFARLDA

[15] = molecular target: T5, Rac GTPase-activating protein 1 (Homo sapiens, UniProt Q9H0H5); assay: MgcRacGAP GTPase-activating activity inhibitors, confirmation, biochemical, ADP Hunter fluorescence, primary and confirmatory (AID 624330); type: functional
T5 sequence (Q9H0H5 whole entry): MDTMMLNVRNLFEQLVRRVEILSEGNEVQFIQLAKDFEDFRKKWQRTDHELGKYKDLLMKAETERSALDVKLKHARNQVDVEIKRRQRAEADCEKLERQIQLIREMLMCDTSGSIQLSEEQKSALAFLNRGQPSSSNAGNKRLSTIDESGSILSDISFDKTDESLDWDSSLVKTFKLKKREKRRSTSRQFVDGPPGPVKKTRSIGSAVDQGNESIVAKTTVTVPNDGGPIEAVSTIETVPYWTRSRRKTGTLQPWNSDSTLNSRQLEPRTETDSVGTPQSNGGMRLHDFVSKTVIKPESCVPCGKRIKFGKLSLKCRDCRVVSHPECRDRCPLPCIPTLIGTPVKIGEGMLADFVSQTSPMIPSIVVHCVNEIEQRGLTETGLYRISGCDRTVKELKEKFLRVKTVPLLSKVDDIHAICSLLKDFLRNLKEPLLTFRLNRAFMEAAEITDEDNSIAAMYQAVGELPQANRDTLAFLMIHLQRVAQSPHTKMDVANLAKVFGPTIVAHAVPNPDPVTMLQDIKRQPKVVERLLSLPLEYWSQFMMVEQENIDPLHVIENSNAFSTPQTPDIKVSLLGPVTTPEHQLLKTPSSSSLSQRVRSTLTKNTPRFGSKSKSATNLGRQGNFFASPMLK

[16] = P. falciparum ATP4 D1247Y mutant growth inhibitors, dose response, NITD609-resistant line, SYBR Green, dry powder (AID 1159571); type: functional, cell-based;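 further: parasites synchronized at ring stage by sorbitol before testing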
[17] = P. falciparum 3D7-ScDHODH growth inhibitors, dose response, SYBR Green, dry powder samples (AID 1159570); type: functional, cell-based;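 further: parasite growth measured after 72 hours of compound exposure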
[18] = P. falciparum Dd2 growth inhibitors, dose response, SYBR Green, dry powder samples (AID 1159566); type: functional, cell-based;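 further: potency for growth inhibition with lower SYBR green DNA signal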
[19] = HepG2 cell cytotoxicity, dose response, cytotoxicity control, plate reader, dry powder samples (AID 1159569); type: functional, cell-based;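 further: inhibitor potency with signal falling toward the positive control level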
[20] = P. falciparum Dd2 growth inhibitors, dose response, SYBR Green, cherry-picked samples (AID 1159567); type: functional, cell-based

Compound: COc1ccc(CCNCc2c(OC)ccc3ccccc23)cc1
- IC50 [1]: > 123 µM (inactive)
- IC50 [2]: > 123 µM (inactive)

Compound: COc1ccc(N=Nc2nc(-c3ccccc3)c(-c3ccccc3)[nH]2)cc1
- IC50 [3]: > 122 µM (inactive)

Compound: O=C(NC(Nc1ncc(S(=O)(=O)c2ccc([N+](=O)[O-])cc2)s1)(C(F)(F)F)C(F)(F)F)c1ccc(Cl)cc1
- IC50 (Fatty acid synthase [4]): 7.87 µM (active)
- EC50 (BJ [5]): 20.1 µM (active)
- AC50 [6]: 9.01 µM (active)
- EC50 (BJ [7]): 52.1 µM (active)
- EC50 [8]: 12.4 µM (active)
- EC50 (BJ [9]): 11 µM (inconclusive)
- EC50 (BJ [10]): 83.6 µM (active)
- AC50 [11]: 4.29 µM (active)
- AC50 [12]: 2.35 µM (active)
- IC50 (Fatty acid synthase [13]): 9.12 µM (active)

Compound: Sc1nnc(COc2ccc(Cl)cc2)n1-c1ccccc1
- IC50 [3]: > 122 µM (inactive)

Compound: COc1ccccc1-n1c(CNCC2CCCO2)nc2ccccc2c1=O (configuration not stated)
- IC50 [1]: > 122 µM (inactive)
- IC50 [2]: > 122 µM (inactive)

Compound: CCN(CC)S(=O)(=O)c1cccc(C(=O)OCC(=O)c2ccc3c(c2)OCCO3)c1
- AC50 [14]: > 100 µM (inactive)

Compound: CCc1cccc2c(C(=O)CN3C(=O)C(=O)N(C4CCCC4)C3=O)c[nH]c12
- AC50 [14]: 32.3 µM (active)

Compound: O=C1CS(=O)(=O)c2ccccc2N1
- IC50 [1]: > 123 µM (inactive)
- IC50 [2]: 35.7 µM (inactive)

Compound: Cc1ccc(Nc2n[nH]c(=S)s2)cc1
- IC50 [15]: 72.2 µM (active)
- IC50 [3]: > 122 µM (inactive)

Compound: CN1C(=O)c2cc(NC(=O)c3ccc(C(F)(F)F)cc3)ccc2OC[C@@H]2O[C@H](CC(=O)NCc3ccc4c(c3)OCO4)CC[C@@H]21
- AC50 [6]: 28 µM (active)
- AC50 [11]: 12.6 µM (active)
- AC50 [12]: 6.22 µM (active)

Compound: CNC[C@H]1Oc2cc(C#CC3CCCCC3)ccc2S(=O)(=O)N([C@H](C)CO)C[C@@H]1C
- AC50 [6]: 0.433 µM (active)
- AC50 [11]: 28.8 µM (active)

Compound: COc1ccc(NC(=O)Nc2ccc3c(c2)[C@@H]2C[C@H](CC(=O)N[C@@H](C)c4ccccc4)O[C@H](CO)[C@@H]2O3)cc1
- AC50 [16]: 2.16 µM (active)
- AC50 [17]: 35.3 µM (active)
- AC50 [18]: 1.62 µM (active)
- AC50 [19]: > 100 µM (inactive)
- AC50 [20]: 2.22 µM (active)

Compound: COc1ccc2c3c(n(C)c2c1)[C@@H](CO)N(Cc1ccc(Cl)cc1)CC31CCN(CC2CC2)CC1
- AC50 [16]: 1.7 µM (active)
- AC50 [17]: 2.64 µM (active)
- AC50 [18]: 1.67 µM (active)
- AC50 [19]: 22 µM (active)
- AC50 [20]: 1.86 µM (active)

From ChEMBL document CHEMBL1201862, “PubChem BioAssay data set” (2004)
